Results as given in article PMC6006164, “Natural cyclopeptide RA-V inhibits the NF-κB signaling pathway by targeting TAK1” (Cell Death & Disease, 2018).
Several values for one entry are separate records, joined by “and”; a condition that tells them apart may be missing. Equal values may be shown once.

Target: T1, TAK1 (Homo sapiens, UniProt O43318)
T1 construct: expressed in transfected cells; host or cells: HEK293T
T1 sequence (O43318 1-579 isoform O43318-2): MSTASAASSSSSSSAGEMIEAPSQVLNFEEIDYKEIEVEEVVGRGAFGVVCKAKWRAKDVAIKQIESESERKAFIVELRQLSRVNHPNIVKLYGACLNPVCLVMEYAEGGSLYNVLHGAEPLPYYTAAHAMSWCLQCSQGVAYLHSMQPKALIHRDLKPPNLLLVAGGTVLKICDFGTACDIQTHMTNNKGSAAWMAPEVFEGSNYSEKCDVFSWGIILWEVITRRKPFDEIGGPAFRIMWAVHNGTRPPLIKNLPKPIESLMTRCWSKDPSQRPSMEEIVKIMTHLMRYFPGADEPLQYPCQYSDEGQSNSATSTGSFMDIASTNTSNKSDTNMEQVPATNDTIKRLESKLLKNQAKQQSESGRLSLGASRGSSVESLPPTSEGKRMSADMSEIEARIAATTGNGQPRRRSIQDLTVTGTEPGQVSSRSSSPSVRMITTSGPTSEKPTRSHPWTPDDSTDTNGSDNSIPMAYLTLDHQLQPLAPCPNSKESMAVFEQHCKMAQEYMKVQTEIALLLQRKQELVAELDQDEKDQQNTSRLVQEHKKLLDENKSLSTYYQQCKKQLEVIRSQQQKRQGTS
Experiment: Streptavidin agarose pull-down with biotin-tagged probe CB12
Format: binding
Conditions: lysates of HEK293T transfected with TAK1; RA-V in 10-fold excess
Protocol: HEK293T cells were transfected with TAK1 for 24 h, then the cell lysates were incubated with biotin or CB12 followed by streptavidin agarose pull-down. […] HEK293T cells were transfected with the indicated plasmids for 24 h. The cell lysates were pulled down with streptavidin agarose and then immunoblotted with HA or Flag antibody. Each experiment was repeated at least three times
HEK293T cells were transfected with TAK1-N or TAK1-C for 24 h. The cells lysates were incubated with CB12 or biotin and precipitated with streptavidin-coated sepharose and were analyzed by immunoblotting with Flag antibody. b The model for RA-V binding to the crystal structure of the TAK1–TAB1 fusion protein (PDB 4GS6). […] HEK293T cells were transfected with TAK1 for 24 h, and then the cell lysates were incubated with biotin or CB12 before precipitation with streptavidin agarose. […] HeLa cells were incubated with various concentrations of RA-V for 12 h and then treated with 10 ng/mL TNF-α for 10 min. The cell lysates were prepared and western blotted with the indicated antibodies. Each experiment was repeated at least three times
HEK293T cells were harvested and lysed in RIPA buffer with protease inhibitors. […] The samples were separated by SDS-PAGE, and the bound proteins were detected using the indicated antibodies.

With `COc1cc(O)c2c(c1)/C=C/C[C@H](O)[C@H](O)C(=O)/C=C\C[C@H](C)OC2=O` [(5Z)-7-Oxozeaenol, reference compound] as the compound, how does the “competition with the CB12–TAK1 interaction (pull-down)” value read?
Its value is “effectively competed”.

System: NF-κB signaling pathway
Experiment: NF-κB-dependent luciferase reporter (5×κB-luciferase/pTK-Renilla), TNF-α-induced, HEK293T cells
Format: cell-based
Conditions: HEK293T screen, 24-well
Protocol: HEK293T or HeLa cells were seeded in 24-well plates and transiently transfected with the 5 × κB-luciferase and pTK-Renilla reporters using Lipofectamine 2000 (Invitrogen) for 18 h. The cells were then incubated with different concentrations of the compounds for the indicated times and subsequently stimulated with 10 ng/mL TNF-α for 2 h. The luciferase activity in the cell lysates was analyzed using the Dual Luciferase Reporter Assay System (Promega). The luciferase reporter assays were performed as previously described.
Supplementary Figure 1. RA-V has the best inhibitory effect on NF-κB signaling pathway among RAs. (a-b) HEK293T cells were transfected with the 5×κB-luciferase and pTK-Renilla reporters. Twenty-four hours after transfection, the cells were incubated with various concentrations of the indicated compounds for 6 h and then treated with 10 ng/ml TNF-α for 2 h before the luciferase activity assays. The data are presented as the means ± S.D. from three independent experiments. […]
Scheme for CB12 synthesis. (c) CB12 inhibited NF-κB reporter activity in a dose-dependent manner. The HEK293T cells were transfected with the 5×κB-luciferase and pTK-Renilla reporters. Twenty-four h after transfection, the cells were treated with various concentrations of CB12 for 6 h and then treated with 10 ng/ml TNF-α for 2 h before the luciferase activity assays. (d) […]
Supplementary Table 3: Screening data of small molecules
Category Parameter Description
Assay Type of assay Cell-based
Target NF-κB signaling pathway
Primary measurement Detection of Firefly luciferase enzyme activities and Renilla Luciferase expression
Key reagents 5 × κB-lucieferase and luciferase assay (Progema)
Assay protocol HEK293T cells were seeded in 24 -well plates and transiently transfected with 20 ng of 5×κB-luciferase and 2 ng of pTK-Renilla reporters using Lipofectamine
2000 (Invitrogen) for 18 h. The cells were then incubated with small molecules (10 μM) for 6 hours, and subsequently stimulated with 10 ng/ml TNF -α for 2 h. Luciferase activity of the cell lysates was analysed by the Dual Luciferase Reported Assay System
(Promega). The Firefly luciferase enzyme activities were determined for NF -κB signaling activities and normalized to Renilla Luciferase expression.
Library Library size approximately 200
Library composition natural and synthetic chemical compounds, including cyclopeptides, quinones and terpenes.
Source State Key Laboratory of Phytochemistry and Plant
Resources in West China, Kunming Institute of Botany, Chinese Academy of Sciences
Screen Format 24-well, Corning
Concentration(s) tested 10 μM
Reagent/ compound dispensing system Manual
Detection instrument and software Synergy 2 (BioTek)
Assay validation/QC Velcade inhibits NF-κB signaling pathway
Normalization The Firefly luciferase enzyme activities were normalized by Renilla Luciferase expression
Post-HTS analysis Hit criteria κB-luc/ Renilla ratio < 0.5 standard deviations from the […]
Hit rate Approximately 15%
Confirmation of hit purity and structure Compounds were verified by HPLC and NMR

How did the “NF-κB signaling pathway (plate control, assay validation)” value turn out when `CC(C)C[C@H](NC(=O)[C@H](Cc1ccccc1)NC(=O)c1cnccn1)B(O)O` [Velcade, Bortezomib, reference compound] was run?
The value was “inhibits”.

Same assay, conditions: HEK293T; compounds 6 h, then 10 ng/ml TNF-α 2 h; means of three independent experiments; read-out: IC50 (μM), NF-κB reporter activity

For RA-XI isoform 1, which IC50 is on record?
The IC50 was over 15 µM.

Which IC50 does the source give for RA-XIII here?
Its IC50 is over 15 µM.

For Rubiyunnanin F, which IC50 is on record?
The IC50 was over 15 µM.

For RA-XI isoform 2, which IC50 is on record?
The IC50 was over 15 µM.

How did the IC50 turn out when Rubiyunnanin C was run?
The IC50 was over 15 µM.

With RA-XII as the compound, how does the IC50 read?
The IC50 was 1.85 µM.

For C-6β-oxy-RA-IV, which IC50 is on record?
Its IC50 is 2.06 µM.

Which IC50 does the source give for RY-II here?
Its IC50 is > 15 µM and 19 µM.

For Rubiyunnanin A, which IC50 is on record?
Its IC50 is over 15 µM.

Which IC50 does the source give for RA-XXIV here?
Its IC50 is 11.9 µM.

Which IC50 does the source give for RA-IV here?
Its IC50 is 10.6 µM.

How did the IC50 turn out when RA-XIII-OMe was run?
Its IC50 is over 15 µM.

For Rubiyunnanin H, which IC50 is on record?
Its IC50 is over 15 µM.

Rubiaschumanin A was tested. Which IC50 did it give?
The IC50 was over 15 µM.

Which IC50 does the source give for Rubiaschumanin C here?
The IC50 was over 15 µM.

Which IC50 does the source give for RA-III here?
The IC50 was 1.1 µM.

How did the IC50 turn out when O-seco-RA-V was run?
The IC50 was over 15 µM.

With RA-VII as the compound, how does the IC50 read?
Its IC50 is 0.089 µM.

For Rubicordifolin A, which IC50 is on record?
The IC50 was 3.41 µM.

How did the IC50 turn out when RA-I was run?
The IC50 was 1.31 µM.

For Rubiyunnanin G, which IC50 is on record?
Its IC50 is over 15 µM.

Which IC50 does the source give for Rubiyunnanin B here?
The IC50 was > 15 µM and 15.1 µM.

How did the IC50 turn out when Rubicordifolin C was run?
The IC50 was 6.87 µM.

Rubiyunnanin E was tested. Which IC50 did it give?
Its IC50 is over 15 µM.

How did the IC50 turn out when Rubiaschumanin B was run?
The IC50 was 3.88 µM.

With Rubiyunnanin I as the compound, how does the IC50 read?
The IC50 was over 15 µM.

How did the IC50 turn out when Rubiyunnanin D was run?
The IC50 was over 15 µM.
